The text below walks through data of patent US11617777B2, “Cytotoxic and anti-mitotic compounds, and methods of using the same” (ZYMEWORKS BC INC., priority 2013, dated 2023).

What is called EC50 is the concentration at which the effect is half-maximal.

The test system of assay [1] is Jurkat cells. Put plainly: Cytotoxicity of compounds, CellTiter-Glo. Type of assay: cell-based, Human. The note with it: Homo sapiens, Jurkat. A digest of the protocol: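 HCC1954 plated at 2500 cells/100 uL and attached overnight; Jurkat plated at 2500 cells/100 uL on the day of dosing. Cells exposed to 8-step 1:3 compound titrations for three nights at 37° C./5% CO2, in triplicate. CellTiter-Glo luminescence converted to % cytotoxicity versus medium-only control; EC50 by three-parameter nonlinear regression.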
(Cellular ATP, detected with luciferase, serves as a proxy for viable cell number.)

For a further assay, the system named is NCI-N87. Nature of the assay: Cytotoxicity of compounds, CellTiter-Glo. The settings on record: Homo sapiens, Table 5, read-out: Cytotoxicity (EC50) NCI-N87. Type of assay: cell-based. The source says: (§1) FIG. 1 summarizes the data for compounds A, B, C, D, and E when tested using the Human mammary carcinoma cell line HCC1954 or Human T-cell leukemia cell line Jurkat. FIGS. 2-6 show the cytotoxicity data plots for individual compounds A-E. Tables 2-6 summarize the results of additional cytotoxicity assays.
(§2) Cell lines used: Human T-cell leukemia cell line Jurkat (ATCC: TIB-152); HCC1954 (ATCC: CRL. 2338); Human Pancreatic cells lines: AsPC-1 (ATCC: CRL-1682), BxPC-3 (ATCC: CRL.1687), HPAF-II (ATCC: CRL.1997), MiaPaCa2 (ATCC: CRL.1420), PANC-1 (ATCC: CRL.1469), Capan-1 (ATCC: HTB-79), Capan-2 (ATCC: HTB-80) and the Human gastric carcinoma cell line NCI-N87 (ATCC: CRL. 5822); AML-193 (ATCC: CRL.9589), CCRF-CEM (ATCC: CCL-119), DU145 (ATCC: HTB-81), PC-3 (ATCC: CRL.1435), A-431 (ATCC: CRL.1555), HT-29 (ATCC: HTB-38), A-172 (ATCC: CRL.1620), NCI-H358 (ATCC: CRL.5807), A549 (ATCC: CCL-185), Colo-205 (ATCC: CCL-222), MDA-MB-231 (ATCC: HTB-26), OVCAR-3 (ATCC: HTB-161), OV-90 (ATCC: CRL.11732), OE19 (Sigma: 96071721), RT 112/84 (Sigma: 85061106).
(§3) On the day prior to adding compounds, HCC1954 AsPC-1, BxPC-3, HPAF-II, MiaPaCa2, PANC-1, Capan-1, Capan-2 and NCI-N87 cells were added to opaque-walled 96-well tissue culture-treated microtiter plates using complete growth medium at a density of 2500 cells/100 microlitre (uL) of medium. These adherant cell lines cells were incubated for one night at 37° C./5% CO2 to allow the cells to attach to the microtiter plate surface. On the day that compounds were added, Jurkat cells are added to separate 96-well microtiter plates at 2500 cells/100 uL using the same growth medium as HCC1954. Compound were first serially diluted using dimethyl sulfoxide, and then the prepared dilutions are added to complete growth medium at five-times the final concentration—compounds were then titrated 1:3, eight steps. A control with no compound (growth medium alone) was included on each microtiter plate in sextuplicate. The prepared compounds titrations were added (twenty-five uL/well) in triplicate. The cells and compound titrations were incubated at 37° C./5% CO2 for three nights. After the incubation, cell viability is measured using CellTiter-Glo® reagent by adding thirty uL of prepared CellTiter-Glo® to each assay well. The assay is incubated for at least twenty minutes in the dark prior to measuring emitted luminescence using a microplate luminometer (500 ms integration time). The collected relative luminescence units (RLU) are converted to % cytotoxicity using the Growth medium alone control mentioned above (% Cytotoxicity=1−[Well RLU/average medium alone control RLU]).
(§4) GraphPad Prism was used for generation of EC50 values using three parameter non-linear regression curve fitting.

The test system of another assay is AsPC-1. Nature of the assay: Cytotoxicity of compounds, CellTiter-Glo. In kind it is cell-based. The settings on record: Homo sapiens, ASPC1, Table 5, read-out: Cytotoxicity (EC50) AsPC-1.
From the text: as §1, §2, §3, §4

A further assay has as its system BxPC-3. Nature of the assay: Cytotoxicity of compounds, CellTiter-Glo. In kind it is cell-based. The note with it: Homo sapiens, Table 5, read-out: Cytotoxicity (EC50) BxPC-3.
From the text: as §1, §2, §3, §4

For a further assay, the system named is HPAF-II. Put plainly: Cytotoxicity of compounds, CellTiter-Glo. Type of assay: cell-based. The settings on record: Homo sapiens, Table 5, read-out: Cytotoxicity (EC50) HPAF-II.
From the text: as §1, §2, §3, §4

For the next assay, the system named is MiaPaCa2. Put plainly: Cytotoxicity of compounds, CellTiter-Glo. In kind it is cell-based. The settings on record: Homo sapiens, MIA PaCa-2; Table 5; MinPaCa2; read-out: Cytotoxicity (EC50) MinPaCa2.
From the text: as §1, §2, §3, §4

The test system of another assay is PANC-1. Nature of the assay: Cytotoxicity of compounds, CellTiter-Glo. The note with it: Homo sapiens, Table 5, read-out: Cytotoxicity (EC50) PANC-1. In kind it is cell-based.
From the text: as §1, §2, §3, §4

For assay [2], the system named is HCC1954 cells. Put plainly: Cytotoxicity of compounds, CellTiter-Glo. Type of assay: cell-based. The note with it: Homo sapiens.
From the text: as §2, §3, §4

The subject of assay [3] is HCC1954 cells. Nature of the assay: Cytotoxicity assay of SMCC- and LC-SPDP-linked ADCs and free compounds. The settings on record: Homo sapiens. Type of assay: cell-based. The procedure: (§5) The purified ADCs were then analysed for: total protein content (BCA assay, Pierce microBCA protocol), relative affinity for antigen binding (equilibrium native binding), and selective cytotoxic killing of HER2-positive cells (HCC1954) compared HER2-negative cells (Jurkat).
(§6) On the day prior to adding test articles, HCC1954 cells were added to opaque-walled 96-well tissue culture-treated microtiter plates using complete growth medium at a density of 2500 cells/100 microlitre (uL) of medium. The HCC1954 cells were incubated for one night at 37° C./5% CO2 to allow the cells to attach to the microtiter plate surface. On the day that test articles were added, Jurkat cells are added to separate 96-well microtiter plates at 2500 cells/100 uL using the same growth medium as HCC1954. To compare the ADC killing to that obtained from the free-compounds, the n-acyl sulfonamide compounds were first serially diluted using dimethyl sulfoxide or DMA, and then the prepared dilutions are added to complete growth medium at five-times the final concentration—compounds were then titrated 1:3, eight steps. To test the ADCs, they were diluted directly in growth medium at five-times the final concentration—ADCs were then titrated 1:3, eight steps. A control with no test article present (growth medium alone) was included on each microtiter plate in sextuplicate. The prepared compound/ADC titrations were added (twenty-five uL/well) in triplicate to both the HCC1954 cells and Jurkat cells. The cells and titrations were incubated at 37° C./5% CO2 for three nights. After the incubation, cell viability was measured using CellTiter-Glo® reagent by adding thirty uL of prepared CellTiter-Glo® to each assay well. The assay was incubated for at least twenty minutes in the dark prior to measuring emitted luminescence using a microplate luminometer (500 ms integration time). The collected relative luminescence units (RLU) were converted to % cytotoxicity using the Growth medium alone control mentioned above (% Cytotoxicity=1−[Well RLU/average medium alone control RLU]).

Assay [4] has as its system Jurkat cells. The description is as above. Type of assay: cell-based. The note with it: Homo sapiens. The method, then:
as §5, §6

The mark [5] stands for this setting: Table 3, Cytotoxicity of Compounds on Jurkat Cells, read-out: EC50.
Where [6] appears, read: HCC1954, Table 4, Cytotoxicity of Compounds on HCC-1954 Cells, read-out: EC50.
Where [7] appears, read: Table 2, HCC1954, read-out: HCC1954 EC50.
Where [8] appears, read: Table 1, Jurkat cells (HER2−), three nights, read-out: Jurkat cells (HER2−) EC50.
Setting [9] is: HCC1954, Table 9, Coupling #1, read-out: HCC1954 Best-fit EC50.
[10] abbreviates: Table 9, Coupling #1, read-out: Jurkat Best-fit EC50.
[11] abbreviates: Table 10, Coupling #2, read-out: Jurkat Best-fit EC50.
Setting [12] is: Table 1, HCC1954 cells (HER2+), three nights, read-out: HCC1954 cells (HER2+) EC50.
[13] abbreviates: HCC1954, Table 10, Coupling #2, read-out: HCC1954 Best-fit EC50.

With `CN[C@H](C(=O)N[C@H](C(=O)N(C)[C@H](/C=C(\C)C(=O)NS(=O)(=O)c1ccc(NC(=O)C(F)(F)F)cc1)C(C)C)C(C)(C)C)C(C)(C)c1ccccc1` [Compound 23, (S,E)-2,5-dimethyl-N-(4-(2,2,2-trifluoroacetamido)phenylsulfonyl)-4-((S)—N,3,3-trimethyl-2-((S)-3-methyl-2-(methylamino)-3-phenylbutanamido)butanamido)hex-2-enamide], the values for the EC50 with Jurkat cells [1] (setting [5]) and with NCI-N87 were 0.031 nM and 0.402 nM, respectively.
With `CN[C@H](C(=O)N[C@H](C(=O)N(C)[C@H](/C=C(\C)C(=O)NS(=O)(=O)c1ccc(N)cc1)C(C)C)C(C)(C)C)C(C)(C)c1ccccc1` [Compound 24, (S,E)-N-(4-aminophenylsulfonyl)-2,5-dimethyl-4-((S)—N,3,3-trimethyl-2-((S)-3-methyl-2-(methylamino)-3-phenylbutanamido)butanamido)hex-2-enamide], the EC50 in the assay on Jurkat cells [1] (setting [5]) was 0.07 nM; with AsPC-1 it was 0.586 nM; in the assay with BxPC-3, 0.27 nM; with HPAF-II it was 0.396 nM; with MiaPaCa2 it was 0.566 nM; in the assay with PANC-1, 2.18 nM.
Regarding `CN[C@H](C(=O)N[C@H](C(=O)N(C)[C@H](/C=C(\C)C(=O)NS(=O)(=O)Cc1ccc(CN)cc1)C(C)C)C(C)(C)C)C(C)(C)c1ccccc1` [Compound 77, (S,E)-N-(4-(aminomethyl)benzylsulfonyl)-2,5-dimethyl-4-((S)—N,3,3-trimethyl-2-((S)-3-methyl-2-(methylamino)-3-phenylbutanamido)butanamido)hex-2-enamide], the EC50 in the assay on AsPC-1 was 15.5 nM; in the assay with BxPC-3, 36.5 nM; in the assay with HPAF-II it was 17.2 nM; in the assay on MiaPaCa2, 94.3 nM; in the assay on PANC-1, 97.2 nM.
Turning to `CN[C@H](C(=O)N[C@H](C(=O)N(C)[C@H](/C=C(\C)C(=O)NS(=O)(=O)CCCS)C(C)C)C(C)(C)C)C(C)(C)c1ccccc1` [Compound A, (S,E)-N-(3-mercaptopropylsulfonyl)-2,5-dimethyl-4-((S)—N,3,3-trimethyl-2-((S)-3-methyl-2-(methylamino)-3-phenylbutanamido)butanamido)hex-2-enamide], the EC50 in the assay on HCC1954 cells [2] (setting [6]) amounted to 2.1 nM; with HCC1954 cells [2] (setting [7]), 3 nM; in the assay with Jurkat cells [1] (setting [8]), 0.78 nM; in the assay with Jurkat cells [1] (Table 2, read-out: Jurkat EC50), 5 nM; in the assay on Jurkat cells [1] (setting [5]), 4.5 nM; in the assay with HCC1954 cells [3] (setting [9]), 2.1 nM. Besides, the figures for the concentration giving a half-maximal response (EC50) in the assay with Jurkat cells [4] (setting [10]) and in the assay with Jurkat cells [4] (setting [11]) were 1.1 nM and 0.78 nM, respectively.
Take `CN[C@H](C(=O)N[C@H](C(=O)N(C)[C@H](/C=C(\C)C(=O)NS(=O)(=O)CCS)C(C)C)C(C)(C)C)C(C)(C)c1ccccc1` [Compound B, (S,E)-N-(2-mercaptoethylsulfonyl)-2,5-dimethyl-4-((S)—N,3,3-trimethyl-2-((S)-3-methyl-2-(methylamino)-3-phenylbutanamido)butanamido)hex-2-enamide]: the EC50 with HCC1954 cells [2] (setting [6]) turned out to be 13 nM; with HCC1954 cells [2] (setting [12]), 8.1 nM; in the assay with HCC1954 cells [2] (setting [7]), 13 nM; in the assay with Jurkat cells [1] (setting [8]), 10.5 nM; in the assay on Jurkat cells [1] (Table 2, read-out: Jurkat EC50), 59 nM; with Jurkat cells [1] (setting [5]), 59 nM. For the same compound, the 50% effective concentration (EC50) is 8.1 nM in the assay on HCC1954 cells [3] (setting [9]), 9.2 nM with HCC1954 cells [3] (setting [13]), 10 nM with Jurkat cells [4] (setting [10]) and 36 nM with Jurkat cells [4] (setting [11]).
As for `CN[C@H](C(=O)N[C@H](C(=O)N(C)[C@H](/C=C(\C)C(=O)NS(=O)(=O)c1ccc(CS)cc1)C(C)C)C(C)(C)C)C(C)(C)c1ccccc1` [Compound C, (S,E)-N-(4-(mercaptomethyl)phenylsulfonyl)-2,5-dimethyl-4-((S)—N,3,3-trimethyl-2-((S)-3-methyl-2-(methylamino)-3-phenylbutanamido)butanamido)hex-2-enamide], the EC50 in the assay with HCC1954 cells [2] (setting [6]) was 1.3 nM; with HCC1954 cells [2] (setting [12]), 0.67 nM; with HCC1954 cells [2] (setting [7]), 1.3 nM; in the assay with Jurkat cells [1] (setting [8]), 0.57 nM; in the assay with Jurkat cells [1] (Table 2, read-out: Jurkat EC50), 1.9 nM; in the assay on Jurkat cells [1] (setting [5]) it was 1.9 nM. The results for the EC50 in the assay with HCC1954 cells [3] (setting [13]) and with Jurkat cells [4] (setting [11]) were 0.67 nM and 0.57 nM, respectively.
Regarding `CN[C@H](C(=O)N[C@H](C(=O)N(C)[C@H](/C=C(\C)C(=O)NS(=O)(=O)c1ccc(C)cc1)C(C)C)C(C)(C)C)C(C)(C)c1ccccc1` [Compound D, (S,E)-2,5-dimethyl-N-tosyl-4-((S)—N,3,3-trimethyl-2-((S)-3-methyl-2-(methylamino)-3-phenylbutanamido)butanamido)hex-2-enamide], the EC50 amounted to 0.06 nM in the assay on HCC1954 cells [2] (setting [6]); 0.06 nM with HCC1954 cells [2] (setting [7]); 0.043 nM in the assay with Jurkat cells [1] (setting [8]); 0.04 nM in the assay on Jurkat cells [1] (Table 2, read-out: Jurkat EC50); 0.033 nM with Jurkat cells [1] (setting [5]); 0.17 nM in the assay on AsPC-1. The EC50 in the assay with BxPC-3 stood at 0.0664 nM; in the assay on HPAF-II, 0.177 nM; in the assay with MiaPaCa2 it was 0.136 nM; in the assay with NCI-N87, 0.272 nM; with PANC-1 it was 0.806 nM.
